From BindingDB's records for PubMed 8226867 (Synaptic Pharmaceutical, 1993)

Key:
[1] = target: 5-hydroxytryptamine receptor 4 (Mus musculus, UniProt P97288)
[2] = target: 5-hydroxytryptamine receptor 6 (Homo sapiens, UniProt P50406)
[3] = target: 5-hydroxytryptamine receptor 4 (Rattus norvegicus, UniProt Q62758)
Chain of 5-hydroxytryptamine receptor 4 (Rattus norvegicus, UniProt Q62758) (Q62758 whole entry): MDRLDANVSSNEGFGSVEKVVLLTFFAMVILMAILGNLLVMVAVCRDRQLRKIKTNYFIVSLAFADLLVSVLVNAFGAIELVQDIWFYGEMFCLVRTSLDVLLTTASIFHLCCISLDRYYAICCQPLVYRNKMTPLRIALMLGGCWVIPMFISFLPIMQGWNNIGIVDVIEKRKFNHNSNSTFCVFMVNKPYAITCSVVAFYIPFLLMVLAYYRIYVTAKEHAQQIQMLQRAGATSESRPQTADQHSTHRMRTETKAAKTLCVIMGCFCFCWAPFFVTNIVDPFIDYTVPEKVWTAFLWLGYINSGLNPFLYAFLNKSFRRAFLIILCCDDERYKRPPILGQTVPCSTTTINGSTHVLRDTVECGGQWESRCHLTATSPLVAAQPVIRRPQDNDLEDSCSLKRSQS

Chain of 5-hydroxytryptamine receptor 6 (P50406 whole entry): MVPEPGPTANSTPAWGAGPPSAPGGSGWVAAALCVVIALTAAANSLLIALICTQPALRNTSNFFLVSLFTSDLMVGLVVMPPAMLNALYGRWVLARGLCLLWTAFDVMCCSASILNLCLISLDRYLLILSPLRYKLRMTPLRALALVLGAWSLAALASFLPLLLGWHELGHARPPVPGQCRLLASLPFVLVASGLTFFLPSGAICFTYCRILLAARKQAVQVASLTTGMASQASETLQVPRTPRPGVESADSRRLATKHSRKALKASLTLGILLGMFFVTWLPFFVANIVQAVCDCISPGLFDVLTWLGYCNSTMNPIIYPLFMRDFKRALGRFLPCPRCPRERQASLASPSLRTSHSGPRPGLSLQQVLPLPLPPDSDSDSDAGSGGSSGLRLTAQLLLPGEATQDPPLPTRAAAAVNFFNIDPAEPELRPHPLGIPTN
Chain of 5-hydroxytryptamine receptor 4 (Mus musculus, UniProt P97288) (P97288 whole entry): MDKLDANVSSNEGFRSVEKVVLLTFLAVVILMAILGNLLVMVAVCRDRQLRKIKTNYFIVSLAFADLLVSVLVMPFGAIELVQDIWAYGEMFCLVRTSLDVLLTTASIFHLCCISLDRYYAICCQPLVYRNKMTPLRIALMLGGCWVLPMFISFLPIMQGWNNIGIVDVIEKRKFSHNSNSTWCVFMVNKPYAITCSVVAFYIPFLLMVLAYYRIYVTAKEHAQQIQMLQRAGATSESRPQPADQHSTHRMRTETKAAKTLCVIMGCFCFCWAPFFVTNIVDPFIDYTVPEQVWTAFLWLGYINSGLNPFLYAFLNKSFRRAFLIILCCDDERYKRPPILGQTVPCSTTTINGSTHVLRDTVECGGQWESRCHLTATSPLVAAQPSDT

Row | SMILES | Ki [2] [µM] | also measured
1 | NCCc1c[nH]c2ccccc12 [1H-indole-3-ethanamine] |  | Ki [1]: > 10 µM
2 | CCN(CC)C(=O)[C@@H]1C=C2c3cccc4[nH]c(Br)c(c34)C[C@H]2N(C)C1 [LSD,2-Bromo] | 0.0171 | 
3 | CC[C@@H](CO)NC(=O)[C@@H]1C=C2c3cccc4c3c(cn4C)C[C@H]2N(C)C1 | 0.372 | 
4 | COc1cc(N)c(Cl)cc1C(=O)NC1CN2CCC1CC2 (stereo unspecified) [ZACOPRIDE,R] |  | Ki [3]: 0.316 µM
5 | COc1ccc2[nH]cc(CCN)c2c1 [tryptamine, 5-Methoxy] |  | Ki [3]: 0.316 µM
6 | CN1C[C@@H](NS(=O)(=O)N(C)C)C[C@@H]2c3cccc4c3c(cn4C)C[C@H]21 [MESULERGINE] | 1.72 | 
7 | Cc1nc2sccn2c(=O)c1CCN1CCC(=C(c2ccc(F)cc2)c2ccc(F)cc2)CC1 | 0.016 | 
8 | CN1C[C@H](CNC(=O)OCc2ccccc2)C[C@@H]2c3cccc4c3c(cn4C)C[C@H]21 [METERGOLINE] | 0.061 | 
9 | NCCc1c[nH]c2ccc(C(N)=O)cc12 [[3H]-5-carboxamidotryptamine] | 0.253 | 
10 | c1ccc2c(N3CCNCC3)cccc2c1 | 0.104 | 
11 | CN1CC(C(=O)N[C@]2(C)O[C@@]3(O)C4CCCN4C(=O)[C@H](Cc4ccccc4)N3C2=O)CC2c3cccc4[nH]cc(c34)CC21 (stereo partly drawn) [7-Methyl-4,6,6a,7,8,9,10,10a-octahydro-indolo[4,3-fg]quinoline-9-carboxylic acid ((2R,5S,10bS)-5-benzyl-10b-hydroxy-2-methyl-3,6-dioxo-octahydro-oxazolo[3,2-a]pyrrolo[2,1-c]pyrazin-2-yl)-amide] | 0.0054 | 
